This experiment deals with T1, ATP-citrate lyase (ACL) (Homo sapiens, UniProt P53396).
T1 construct: gene ACLY; recombinant human ACL
T1 sequence (P53396 1-1101): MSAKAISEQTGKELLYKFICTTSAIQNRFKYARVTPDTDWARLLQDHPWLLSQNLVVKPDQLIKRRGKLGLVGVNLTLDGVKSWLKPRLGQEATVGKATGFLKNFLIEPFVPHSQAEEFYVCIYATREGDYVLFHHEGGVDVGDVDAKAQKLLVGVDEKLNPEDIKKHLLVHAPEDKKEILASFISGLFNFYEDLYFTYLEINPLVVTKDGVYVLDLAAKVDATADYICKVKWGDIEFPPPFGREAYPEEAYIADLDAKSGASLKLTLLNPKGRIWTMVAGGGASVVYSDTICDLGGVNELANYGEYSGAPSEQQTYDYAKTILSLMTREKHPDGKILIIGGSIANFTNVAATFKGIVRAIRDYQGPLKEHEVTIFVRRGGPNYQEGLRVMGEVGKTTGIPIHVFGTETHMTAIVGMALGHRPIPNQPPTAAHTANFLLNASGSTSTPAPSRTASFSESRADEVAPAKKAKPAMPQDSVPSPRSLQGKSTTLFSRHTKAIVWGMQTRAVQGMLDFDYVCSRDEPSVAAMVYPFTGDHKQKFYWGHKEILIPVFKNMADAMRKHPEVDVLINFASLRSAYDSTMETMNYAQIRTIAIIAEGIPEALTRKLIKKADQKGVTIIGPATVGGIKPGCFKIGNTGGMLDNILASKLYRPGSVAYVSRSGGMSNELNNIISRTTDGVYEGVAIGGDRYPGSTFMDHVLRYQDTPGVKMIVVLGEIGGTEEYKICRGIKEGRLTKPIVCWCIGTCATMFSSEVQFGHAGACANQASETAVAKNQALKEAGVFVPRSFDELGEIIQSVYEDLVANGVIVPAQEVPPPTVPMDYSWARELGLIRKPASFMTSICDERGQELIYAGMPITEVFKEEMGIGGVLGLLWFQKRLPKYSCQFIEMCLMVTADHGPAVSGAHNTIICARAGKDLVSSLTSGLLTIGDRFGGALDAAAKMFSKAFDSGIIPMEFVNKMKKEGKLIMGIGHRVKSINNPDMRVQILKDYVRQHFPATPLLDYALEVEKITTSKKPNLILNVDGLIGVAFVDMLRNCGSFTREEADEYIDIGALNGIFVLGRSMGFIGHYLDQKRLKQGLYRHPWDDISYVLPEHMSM
The experiment in a line: cell-free radiometric assay, […]-citrate to […]-acetyl-CoA, enzyme kinetics. The class given is biochemical.

Broadly, the Ki is the equilibrium dissociation constant of an inhibitor or competing ligand from its target. Compound `CC(C)(CCCCCC(O)CCCCCC(C)(C)C(=O)SCCNC(=O)CCNC(=O)[C@H](O)C(C)(C)COP(=O)(O)OP(=O)(O)OC[C@H]1O[C@@H](n2cnc3c(N)ncnc32)[C@H](O)[C@@H]1OP(=O)(O)O)C(=O)O` (stereo partly shown) [ETC-1002-CoA] showed a Ki of 2000 nM.

For the origin of these results see PMC5133702, “Liver-specific ATP-citrate lyase inhibition by bempedoic acid decreases LDL-C and attenuates atherosclerosis” (Nature Communications, 2016).
